Laboratory results reported in patent publication US9102648B1, “Bioavailable diacylhydrazine ligands for modulating the expression of exogenous genes via an ecdysone receptor complex” (Intrexon Corporation, priority 2003, dated 2015).

What was measured:
[1] = target: GAL4 DBD-CfEcR(DEF)/VP16AD-MmRXRE (Choristoneura fumiferana, UniProt O77240); test: 13B3 Assay (CHO stable cell line, luciferase reporter); settings: for Fold Induction, 13B3 Assay, 33 uM: 33 uM ligand; for Fold Induction, 13B3 Assay, 33 uM / Fold Induction, 13B3 Assay, 3.3 uM: RLU ligand treated / RLU DMSO treated cells; for Fold Induction, 13B3 Assay, 33 uM / Fold Induction, 13B3 Assay, 3.3 uM / EC50: average of two wells; for Fold Induction, 13B3 Assay, 3.3 uM: 3.3 uM ligand; for 13B3 assay Rel Max FI: maximum fold induction at any concentration relative to that of GS-E ligand, CHO 13B3 cells; for EC50: read-out: 13B3 EC50, CHO 13B3 stable cell line, luciferase reporter, 48 h
In short: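 CHO 13B3 clone stably expressing GAL4 DBD–CfEcR(DEF) and VP16AD–MmRXR(DE) with GAL4 RE–luciferase reporter; cells plated 24 h at 37 °C, then treated with ligands (DMSO stocks diluted 300-fold), 8 concentrations 33–0.01 μM.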

[2] = target: T1, Bombyx mori EcR (VP16 fusion, CVBE switch construct) (Bombyx mori, UniProt P49881); test: Z3 Assay (HEK-293 cells with CVBE and 6XEcRE LacZ, β-galactosidase reporter); settings: for Fold Induction, Z3 Assay, 3.3 uM: 3.3 uM ligand; for Fold Induction, Z3 Assay, 3.3 uM / Fold Induction, Z3 Assay, 33 uM: ligand treated / DMSO treated cells; for Fold Induction, Z3 Assay, 3.3 uM / Fold Induction, Z3 Assay, 33 uM / EC50: average of two wells; for Fold Induction, Z3 Assay, 33 uM: 33 uM ligand; for Z3 assay Rel Max FI: maximum fold induction at any concentration relative to that of GS-E ligand; for Z3 assay Rel Max FI / EC50: HEK-293 Z3 cells; for EC50: read-out: Z3 assay EC50, β-galactosidase reporter; for fold induction at 33 µM: HEK293, read-out: Fold Induction, Z3 Assay, 33 uM
T1 sequence (P49881 86-606): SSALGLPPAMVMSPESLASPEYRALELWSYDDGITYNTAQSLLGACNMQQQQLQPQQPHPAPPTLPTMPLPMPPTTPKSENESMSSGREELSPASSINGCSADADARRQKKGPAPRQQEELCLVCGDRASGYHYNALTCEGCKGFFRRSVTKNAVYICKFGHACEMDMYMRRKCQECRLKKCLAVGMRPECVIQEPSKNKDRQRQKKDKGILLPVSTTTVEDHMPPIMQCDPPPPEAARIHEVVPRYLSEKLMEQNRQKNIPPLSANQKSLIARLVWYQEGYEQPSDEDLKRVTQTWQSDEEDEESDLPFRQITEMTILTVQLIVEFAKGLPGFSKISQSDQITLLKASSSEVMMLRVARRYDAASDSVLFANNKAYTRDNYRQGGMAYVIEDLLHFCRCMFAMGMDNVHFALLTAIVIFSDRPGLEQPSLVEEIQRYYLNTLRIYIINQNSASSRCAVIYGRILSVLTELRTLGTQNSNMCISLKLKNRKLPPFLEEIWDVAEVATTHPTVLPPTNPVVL
T1 sequence (P19793 1-462 partner): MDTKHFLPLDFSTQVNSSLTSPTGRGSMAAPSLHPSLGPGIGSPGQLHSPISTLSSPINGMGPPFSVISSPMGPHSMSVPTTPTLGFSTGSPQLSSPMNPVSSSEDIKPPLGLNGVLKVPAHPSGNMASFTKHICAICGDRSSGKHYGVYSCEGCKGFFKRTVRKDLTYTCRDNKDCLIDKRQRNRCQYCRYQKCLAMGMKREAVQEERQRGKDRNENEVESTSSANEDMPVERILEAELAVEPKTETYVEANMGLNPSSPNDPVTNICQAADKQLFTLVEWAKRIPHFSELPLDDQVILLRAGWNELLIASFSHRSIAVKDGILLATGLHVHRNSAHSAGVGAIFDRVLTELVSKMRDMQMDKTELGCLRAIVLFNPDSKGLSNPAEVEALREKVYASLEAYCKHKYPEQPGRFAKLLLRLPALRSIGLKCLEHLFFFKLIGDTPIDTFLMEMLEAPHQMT

[3] = system: mutated ecdysone receptor-based gene switch; test: In vivo SEAP induction, ligand by IP injection; parameters: species or system C57BL/6 mouse; settings: IP 26 nmol ligand
Procedure: Applicants' ligands are useful in various applications including gene therapy, expression of proteins of interest in host cells, production of transgenic organisms, and cell-based assays. In vivo induction of a reporter enzyme with various ligands of the present invention was evaluated in a C57BL/6 mouse model system containing a gene switch.
Each element of the gene switch was on a separate plasmid. Receptor expression was under the control of a CMV promoter (SEQ ID NO: 15). Induction was evaluated by the amount of reporter protein expressed in the presence of ligand.
SEAP expression in serum of mice was evaluated after electroporation of the gene switch into mouse quadriceps. Mice were anesthetized with 2 μL/g of a mixture of ketamine (100 mg/mL) and xylazine (20 mg/mL). Animals were then shaved, DNA vectors injected into the muscle in a volume of 2×50 μL polyglutamic acid (12 mg/mL water), electrode conductivity gel applied, and an electrode caliber (1 cm×1 cm; model 384) was placed on hind leg. The muscle was electroporated with 200 V/cm, 8 times, for 20 msec/pulse, at 1 sec time intervals. The transverse electrical field direction was reversed after the animals received half of the pulses. Electroporation was performed with an ECM 830 electroporator from BTX Molecular Delivery Systems.
In some experiments mice received an intraperitoneal injection (IP) of 2.6 μmol of ligand in 50 μL of DMSO 3 days after electroporation of the gene switch. In other experiments the concentration of ligand was decrease to 26 nmol/50 μL of DMSO/mouse. SEAP expression was evaluated 2-11 days after ligand administration. In other experiments ligand was administered in rodent chow. The chow was prepared by dissolving 2 g of ligand in 20 mL of acetone and adding it to 1 kg of LabDiet 5010 autoclavable chow from Purina Mills. This was thoroughly mixed in a Hobart mixer and then mixed for an additional 15 min in a Cross Blend mixer. Animals received chow ad libitum for 1, 2, or 3 days. All values are the average from four animals. Background SEAP in sera from animals treated with vector alone without ligand addition was 0-11 ng/mL serum.
Mouse serum was obtained by centrifugation of blood acquired by retroorbital bleeding with a small glass capillary tube. SEAP quantification was determined using a Clontech Great Escape chemiluminescence kit and by comparison with the Clontech SEAP standard.
Table 9: In vivo evaluation of ligand-mediated induction of a mutated ecdysone receptor-based gene switch. SEAP expression in serum of mice was evaluated after electroporation of the gene expression cassettes into mouse quadriceps. Mice received an IP injection of 2.6 μmol of ligand 3 days after electroporation. SEAP expression was evaluated 2-11 days after ligand administration. Each dose group was composed of four animals. Percentage of GS™-E ligand induction was determined by averaging SEAP expression from four animals divided by the average SEAP expression induced with GS™-E ligand and then multiplying by 100.
Table 10: Induction of gene switch expression with low concentrations of ligand. SEAP expression in serum of mice was evaluated after electroporation of the gene expression cassettes into mouse quadriceps. Mice received an IP injection of 26 nmol of ligand or 130 nmol GS™-E ligand 3 days after electroporation. SEAP expression was evaluated 2-7 days after ligand administration. Values are the average from 4 animals.

[4] = target: GAL4 DBD (1-147)-CfEcR(DEF)/VP16AD-βRXREF-LmUSPEF (Choristoneura fumiferana, UniProt O77240); test: cell-based; settings: for 27-63 assay Rel Max FI: maximum fold induction at any concentration relative to that of GS-E ligand, CHO 27-63 cells; for fold induction at 33 µM: read-out: Fold Induction, 27-63 Assay, 33 uM

SMILES	Fold Induction, 13B3 Assay, 33 uM [1]	Fold Induction, Z3 Assay, 3.3 uM [2]	Fold Induction, Z3 Assay, 33 uM [2]	Z3 assay Rel Max FI [2]	EC50 [2]	Fold Induction, 13B3 Assay, 3.3 uM [1]	13B3 assay Rel Max FI [1]	EC50 [1]	further results
CCc1c(OC)cccc1C(=O)NN(C(=O)c1cccc(F)c1)C(C)(C)C [RG-115515]	1996	1306	420	0.975	0.617 µM				
Cc1cc(C)cc(C(=O)N(NC(=O)c2ccc3c(c2Cl)COCO3)C(C)(C)C)c1 [RG-115532]	738	530		0.933	0.129 µM	908	0.835	0.518 µM	
C=Cc1c(OC)cccc1C(=O)NN(C(=O)c1cc(F)c(Cl)cc1Cl)C(C)(C)C [RG-115534]	211	168	249	0.463	2.75 µM				
Cc1c(C(=O)NN(C(=O)c2cc(Cl)nc(Cl)c2)C(C)(C)C)ccc2c1OCCO2 [RG-115536]		488		0.950	0.126 µM	483	0.734	0.781 µM	
CCc1c(OC)cccc1C(=O)NN(C(=O)c1cnccn1)C(C)(C)C [RG-115550, pyrazine-2-carboxylic acid N-tert-butyl-N′-(2-ethyl-3-methoxy-benzoyl)-hydrazide]									fold induction at 3.3 µM ([1]; read-out: Fold Induction, 13B3 Assay, 3.3 uM): 1; fold induction at 33 µM [2]: 21
COc1cc(C(=O)N(NC(=O)c2ccc3c(c2C)OCCO3)C(C)(C)C)c([N+](=O)[O-])c(OC)c1C [RG-115609, 3,5-dimethoxy-4-methyl-2-nitrobenzoic acid N-t-butyl-N′-(5-methy-1benzo-1,4-dioxan-6-carbonyl)-hydrazide]	4217	90	383	0.625	1.39 µM	558	0.883	13.8 µM	
CCc1c(OC)cccc1C(=O)NN(C(=O)c1cc(C)cc(C=NO)c1)C(C)(C)C [RG-115625]	715	265	1559	0.950	0.389 µM	3	0.931	25.3 µM	
CCc1c(OC)cccc1C(=O)NN(C(=O)c1cccc(F)c1F)C(C)(C)C [RG-115627]	10058	378	362	0.840	0.813 µM	1291	0.854	0.921 µM	
CCc1c(OC)cccc1C(=O)NN(C(=O)c1cccc(Br)c1)C(C)(C)C#N [RG-115648]				0.182	21.4 µM	9			
CCc1ccc(C(=O)NN(C(=O)c2cccc(C)c2)C(C)(C)C)c(F)c1 [RG-115674]		319		0.995	0.229 µM	442	0.875	1.72 µM	
CCc1c(C(=O)NN(C(=O)c2cc(F)c(Cl)cc2Cl)C(C)(C)C)ccc2c1OCCO2 [RG-115684]	151		498						
CCc1c(OC)cccc1C(=O)NN(C(=O)c1cc(OC)c(C)c(OC)c1)C(C)(C)C#N [RG-115690]		571		0.998	0.209 µM	930	1.181	0.632 µM	
CCc1c(OC)cccc1C(=O)NN(C(=O)c1nc(SC)cnc1Cl)C(C)(C)C [RG-115716]			66			3			
CCc1c(OC)cccc1C(=O)NN(C(=O)c1ccc2nc[nH]c2c1)C(C)(C)C [RG-115719, 3H-benzoimidazole-5-carboxylic acid N-tert-butyl-N′-(2-ethyl-3-methoxy-benzoyl)-hydrazide]									fold induction at 33 µM ([1]; read-out: Fold Induction, 13B3 Assay, 33 uM): 1; fold induction at 33 µM [2]: 271
CCC(N(NC(=O)c1ccc2c(c1C)OCCO2)C(=O)c1cc(C)cc(C)c1)C(C)(C)C (centres unmarked) [RG-115856, 3,5-Dimethyl-benzoic acid N-(1-ethyl-2,2-dimethyl-propyl)-N′-(5-methyl-2,3-dihydro-benzo[1,4]dioxine-6-carbonyl)-hydrazide]									Secreted Alkaline Phosphatase Day 2 [3]: 2,292 ng/ml mouse sera; Secreted Alkaline Phosphatase Day 3 [3]: 2,350 ng/ml mouse sera; EC50 [4]: 0.003 µM; 27-63 assay Rel Max FI [4]: 0.879; fold induction at 33 µM [4]: 1760
CCC(N(NC(=O)c1ccc2c(c1C)OCCO2)C(=O)c1cc(OC)c(C)c(OC)c1)C(C)(C)C (centres unmarked) [RG-115857, 3,5-Dimethoxy-4-methyl-benzoic acid N-(1-ethyl-2,2-dimethyl-propyl)-N′-(5-methyl-2,3-dihydro-benzo[1,4]dioxine-6-carbonyl)-hydrazide]									Secreted Alkaline Phosphatase Day 2 [3]: 574 ng/ml mouse sera; Secreted Alkaline Phosphatase Day 3 [3]: 401 ng/ml mouse sera; EC50 [4]: 0.013 µM; 27-63 assay Rel Max FI [4]: 1.140; fold induction at 33 µM [4]: 328
